Reference: US20160331743A1 (UROGEN PHARMA LTD, priority 2014, published 2016)
Entries after “also recorded” stand apart in the source; their conditions may differ. Like-named read-outs stand apart in the source and are kept apart here.

System: carcinoma in situ (CIS) bladder cancer
Settings: imiquimod 0.4%, once weekly for 6 weeks
Text: Patients who have been diagnosed with CIS bladder cancer are potential candidates for the study. The CIS lesion(s) may be primary, secondary, or recurrent, and may be concomitant to a Ta or T1 lesion, provided the Ta or T1 lesion has been fully resected.
After provision of written informed consent, patients are to be evaluated for study eligibility during the screening period within 28 days (4 weeks) before Day 0 (i.e., the first day of study drug administration). Screening evaluations to be performed include medical history, physical examination, vital signs, Eastern Cooperative Oncology Group (ECOG) performance status, hematology and clinical chemistry, and urinalysis with culture. Screening evaluations also include a cystoscopic examination of the bladder with mapping and biopsy/ies of all suspicious areas between Days −28 and −14, followed by a bladder washing for cytology. Patients who have undergone such examinations as part of the diagnostic process outside of the study are not required to undergo the procedures again, provided the examinations occurred within the specified timeframe and positive slides are available for a central pathology and cytology review.
In cases with no visible lesions, at least one biopsy will be taken at the prior positive site and at least 1 additional random biopsy will be taken. Response to treatment will be determined based on urine cytology and tissue sample histology findings.
Patients meeting all of the following criteria were considered eligible for study entry: • 1. Males or female patient is aged ≧18 years. • 2. Patient has pathologically-proven, recurrent, primary, secondary, or concomitant carcinoma in situ disease, defined by having either CIS alone or Ta or T1 with CIS, provided the Ta or T1 lesion(s) has/have been fully resected. In cases with T1 tumor lesions, muscularis propria tissue should be in the resected specimen to confirm that it is tumor-free. • 3. Patient has undergone mapping of the bladder between Days −28 and −14, with at least one biopsy providing pathological confirmation of CIS of the bladder. • 4. Patient has undergone bladder washing for cytology between Days −28 and −1. In patients in whom Ta or T1 lesion(s) were resected, the bladder washing must have occurred after the resection. • 5. Patient has an ECOG performance status 0-2. • 6. Patient has adequate bone marrow, hepatic, and renal function within 4 weeks before Day 0.

Q: Which results are given for `CC(C)Cn1cnc2c(N)nc3ccccc3c21` [imiquimod, 1-Isobutyl-1H-imidazo[4,5-c]quinolin-4-amine]?
A: Summary (response to treatment) (Patient 1 (BCG refractory, CIS), 50 mL intravesical): Responder; Histology post treatment (Patient 1 (prior BCG, CIS prior to treatment), 200 mg in 50 mL intravesical, assessed 5 to 7 weeks after last dose): no tumor was detecable; Tumour detectable in follow-up evaluation (Patient 1, preliminary results, 50 mL intravesical): no tumour was detectable; Summary (response to treatment) (Patient 2 (prior chemo, BCG; CIS), 50 mL intravesical, evaluation still ongoing): partial responder; Histology post treatment (Patient 2 (prior chemotherapy, BCG, 9x TURBT, CIS prior to treatment), 50 mL intravesical): still CIS detected and CIS; Cytology post treatment (Patient 3 (no prior treatment), 50 mL intravesical): no tumor was detected any more; Summary (response to treatment) (Patient 3 (no prior treatment, CIS + papillary cancer), 50 mL intravesical): Responder; Histology post treatment (Patient 3 (no prior treatment, CIS + papillary high and low grade cancer prior to treatment), 50 mL intravesical): no tumor was detected any more; also recorded: No tumor; Histology post treatment (Patient 4 (prior TURB, low grade prior to treatment; had no CIS bladder cancer, excluded from study), 50 mL intravesical): No tumor; Histology post treatment (Patient 5 (prior BCG/Mitomycin, CIS prior to treatment), 50 mL intravesical): no tumor was detectable; Summary (response to treatment) (Patient 5 (prior BCG/Mitomycin, CIS), 50 mL intravesical): Responder; Number of patients with complete remission of the CIS bladder cancer as assessed by histology (of the 5 patients analyzed (patients 1, 3, 4, 5 counted), 50 mL intravesical): Four
